From ChEMBL document CHEMBL1150280, “Mono-tetrahydrofuran annonaceous acetogenins from Annona squamosa as cytotoxic agents and calcium ion chelators” (J Nat Prod, 2008)

Key:
MCF7 = assay: cells; conditions: Homo sapiens, MCF7, 72 h
Description: Cytotoxicity against human MCF7 cells after 3 days by MTT assay

[1] = Cytotoxicity against human Hep3B cells after 3 days by MTT assay; conditions: 72 h
HepG2 = assay: Cytotoxicity against human HepG2 cells after 3 days by MTT assay; conditions: HepG2, 72 h
MDA-MB-231 = assay: cells; conditions: Homo sapiens, MDA-MB-231, 72 h
Description: Cytotoxicity against human MDA-MB-231 cells after 3 days by MTT assay

A549 = assay: Cytotoxicity against human A549 cells after 3 days by MTT assay; conditions: A549, 72 h

Structure (SMILES) | IC50 (MCF7) [µM] | IC50 [1] [µM] | IC50 (HepG2) [µM] | IC50 (MDA-MB-231) [µM] | IC50 (A549) [µM]
CCCCCCCCCC[C@@H](O)[C@H]1CC[C@H]([C@H](O)CCCCCCCCCCCCCCCCC2=C[C@H](C)OC2=O)O1 | 3.31 |  |  |  | 
CCCCCCCCCCCCCC[C@@H](O)[C@H]1CC[C@H]([C@H](O)CCCCCCCCCCCCC2=C[C@H](C)OC2=O)O1 | 28.3 |  |  |  | 
CCCCCCCCCC[C@@H](O)[C@H]1CC[C@@H]([C@@H](O)CCCCCCCCCCCCCCC2=C[C@H](C)OC2=O)O1 | 30.7 |  |  |  | 
CCCCCCCCCCCCC(O)C1CCC(C(O)CCCCCCCCCCCCCCC2=CC(C)OC2=O)O1 (stereo not given) | 8.11 |  |  |  | 
CCCCCCCCCC/C=C\CC[C@@H](O)[C@H]1CC[C@H]([C@H](O)CCCCCCCCCCCCC2=C[C@H](C)OC2=O)O1 [BULLATENCIN] |  | 31.4 |  |  | 
CC(=O)O[C@H]1C(=O)[C@@]2(C)[C@H]([C@H](OC(=O)c3ccccc3)[C@]3(O)C[C@H](OC(=O)[C@H](O)[C@@H](NC(=O)c4ccccc4)c4ccccc4)C(C)=C1C3(C)C)[C@]1(OC(C)=O)CO[C@@H]1C[C@@H]2O [PACLITAXEL] |  | 0.13 | 0.0468 | 0.0703 | 
CCCCCCC(O)CCC[C@H](O)[C@H]1CC[C@H]([C@H](O)CC[C@@H](O)[C@H](O)CCCCCCCCCCCCC2=C[C@H](C)OC2=O)O1 (stereo not given in full) [SQUADIOLIN A] | 2.83 | 3.52 | 0.0056 | 0.63 | < 0.2
CCCCCCCCCC[C@H](O)[C@@H](O)CC[C@H](O)[C@@H](O)CC[C@@H](O)[C@H]1CC[C@H](CCCCCCCCCC2=C[C@H](C)OC2=O)O1 [SQUADIOLIN B] | 5.47 | 6.98 | 0.011 | 0.28 | 2.75
CCCCCCCCCCCC[C@H](O)[C@@H](O)CCCC[C@@H](O)[C@H]1CC[C@H](CCCCCCCC(O)CC2=C[C@H](C)OC2=O)O1 (stereo not given in full) [SQUADIOLIN C] | 3.62 |  | 3.48 | 14.5 | 8.11
CCCCCCC(O)C(O)CCCCCC[C@@H](O)[C@H]1CC[C@H]([C@H](O)CCCCCCCCCCCCC2=C[C@H](C)OC2=O)O1 (stereo not given in full) [SQUAFOSACIN B] | 0.96 | 0.72 | 0.71 | 17 | 0.66
CCCCCCCCCC[C@@H](O)[C@H]1CC[C@H]([C@H](O)CCCCCC(O)CCCCCCCCC2=C[C@H](C)OC2=O)O1 (stereo not given in full) [SQUAFOSACIN C] | 26.4 | 14 | 18.9 | 18.1 | 21
CCCCCCCCCCCC[C@H](O)[C@H]1CC[C@@H]([C@@H](O)CCCCCCCCCCCCC2=C[C@H](C)OC2=O)O1 [SQUAFOSACIN F] | 35.1 |  |  | > 36 | 
CCCCCCCCCC[C@H](O)[C@H]1CC[C@@H]([C@@H](O)CCCCCCCCCCCCCCCCC2=C[C@H](C)OC2=O)O1 [SQUAFOSACIN G] | 29.8 |  |  |  | 
